Measured values as given in the NIST ThermoML archive (doi:10.1016/j.jct.2014.07.003).

Experiments:
[1] = mn = molality of the nth substance listed, in mol/kg; details: 99 kPa, Liquid, Alternating current cell with electrodes
[2] = 99 kPa, Liquid, Alternating current cell with electrodes

CCCCC[N+](CCCCC)(CCCCC)CCCCC.[Br-] [tetrapentylammonium bromide] + O
[1], m1 = 0.01
Details | electrical conductivity [S/m]
288.15 K | 0.0961
293.15 K | 0.0898
298.15 K | 0.0879
303.15 K | 0.09
308.15 K | 0.0897
313.15 K | 0.0881
318.15 K | 0.0903

O [water]
[2]
Details | electrical conductivity [S/m]
288.15 K | 0.0005
293.15 K | 0.000281
298.15 K | 0.000585
303.15 K | 0.000687
308.15 K | 0.00057
313.15 K | 0.000608
318.15 K | 0.000835

CCCC[N+](CCCC)(CCCC)CCCC.[Br-] [tetrabutylammonium bromide] + O
[1], m1 = 0.01
Details | electrical conductivity [S/m]
288.15 K | 0.106
293.15 K | 0.0894
298.15 K | 0.0829
303.15 K | 0.0841
308.15 K | 0.083
313.15 K | 0.0843
318.15 K | 0.0856

O [water] + CCCCCCCCCCCC[N+](C)(C)C.[Br-]
[1], m2 = 0
Details | electrical conductivity [S/m]
288.15 K | 0.0005
293.15 K | 0.000281
298.15 K | 0.000585
303.15 K | 0.000687
308.15 K | 0.00057
313.15 K | 0.000608
318.15 K | 0.000835
